Data reported in paper PMC7026882, “Macrofilaricidal Benzimidazole–Benzoxaborole Hybrids as an Approach to the Treatment of River Blindness: Part 2. Ketone Linked Analogs” (ACS Infectious Diseases, 2019).
Where two headings read alike, the source gives them in different places.

What was measured:
[1] = system: mammalian tubulin (G2/M arrest); assay: G2/M arrest assay, indicative of interaction with mammalian tubulin; format: cell-based
Description: (§1) As summarized in Table 1, we were encouraged to find that the initial ketone analogs prepared, namely, 15 (6-linked) and 20 (5-linked), were quite active in an O. volvulus molting assay we used as a primary indicator of antiparasitic activity[30],[31] and were only weakly active in a G2/M arrest,[32] indicative of the interaction with mammalian tubulin. As described above, our hypothesis was to reduce Pgp efflux liability through elimination of the hydrogen-bond donor associated with the N–H of the amide linker, as this has been shown in the literature to be a contributor to recognition by Pgp.[33],[34] […] We were disappointed to find that the 5-linked analog 22 was poorly selective and the 6-linked analog 23 was only weakly active.

[2] = system: P-gp (MDR1); assay: MDCK-MDR1 cell monolayer permeability assay; format: in vitro ADME; settings: dog
Description: as §1

[3] = Metabolic stability (Clint) in gerbil microsomes; format: in vitro ADME
Description: as §1

[4] = Metabolic stability (Clint) in human microsomes; format: in vitro ADME
Description: as §1

[5] = system: O. volvulus; assay: O. volvulus molting assay; format: cell-based; settings: Onchocerca volvulus; for IC50: molting assay
Description: as §1, with “active. […]” for “active.”
(§2) in comparison to the number of control larvae that had successfully molted. IC50 values were calculated using GraphPad Prism v6.0 (http://www.graphpad.com). See Bullman et al., PLoS
(§3) Negl. Trop. Dis., 2015, 9, e3534 for further details.
(§4) Adult Brugia malayi in vivo model procedure.
(§5) Gerbils (Meriones unguiculatus) were infected by transplantation of 10 male and 10 female adult Brugia malayi into the peritoneal cavity. Gerbils were acclimated for 7 days prior to treatment. Animals were dosed based on their body weight prior to each dosing. Animals were administered their doses at the same time each day and receive standard rodent laboratory diet and water ad libitum. Gerbils were humanely euthanized at the conclusion of each study.
(§6) Peritoneal counts of male and female adult B. malayi and visual condition of the peritoneum […]
(§7) L3 Brugia pahangi in vivo model procedure.
(§8) Male gerbils (Meriones unguiculatus) approximately 6 weeks of age (50-60 g) were purchased from Charles Rivers (USA, Kingston K62 Gerbils) and infected by intraperitoneal injection with 200 Brugia pahangi third-stage larvae (L3) per animal (Filariatech, Inc., Athens, GA). Gerbils were housed with no more than 5 animals per cage and maintained 9 months prior to treatment. All gerbils were dosed in accordance with their body weight determined prior to each dosing. Animals were administered their doses at the same time each day and are allowed to feed and drink ad libitum. Gerbils were euthanized following approved institutional protocols. Euthanized animals were weighed and examined for external and visceral pathologies. The adult Brugia worms were recovered by opening the body cavity and washing the peritoneal cavity with 100 mL of phosphate buffered saline. Male and female worms were counted using a dissecting microscope.
(§9) Litomosoides sigmodontis in vivo model procedure. 2
(§10) All animal experiments with L. sigmodontis were conducted at the Institute for Medical Microbiology, Immunology and Parasitology (IMMIP), University Hospital of Bonn, in accordance to the European Union animal welfare guidelines. All protocols were approved by the local authorities (Landesamt für Natur, Umwelt und Verbraucherschutz, Cologne, Germany (AZ 84- […]
(§11) Janvier (Saint-Berthevin, France) and were housed at the animal facility of the IMMIP in individually ventilated cages on a 12h light/dark cycle with food and water ad libidum. Mice were infected at 6-8 weeks of age via exposure to the natural mite vector Ornithonyssus bacoti

[6] = Pharmacokinetics in Mongolian gerbils; format: in vivo; settings: blood, Mongolian gerbils; for AUC(0-t): read-out: AUC0–24; for Cmax: read-out: Cmax; for bioavailability: po, read-out: bioavailability (%F)
Description: In addition, the concentrations achieved at these doses were well in excess of the O. volvulus IC50, a requirement for in vivo activity that we had hypothesized on the basis of earlier work in the amide-linked series.

[7] = system: Brugia pahangi; assay: In vivo efficacy in the L3 Brugia pahangi gerbil model
Experimental: For our in vivo model, gerbils were infected by injecting B. pahangi third-stage larvae (L3) that were subsequently allowed to develop to adult worms over several months. Once stable infections had been established, 21 was administered as a suspension via once-daily oral gavage at a dose of 100 mg/kg for 7, 14, or 28 days. All animals were maintained until day 63 after the start of dosing, at which time adult worms were recovered from the peritoneal cavity and microfilariae were quantified in blood samples. Flubendazole (5 mg/kg, SC × 5 days) was included as a positive control in this study. […]
as §2, §3, §4, §5, §6, §7, §8, §9, §10, §11

[8] = system: P-glycoprotein transporter (Pgp); set-up: method as in PMID 30650084; settings: limits oral bioavailability; cited from earlier work
[9] = system: LF (lymphatic filariasis); set-up: method as in PMID 30650084; settings: by route of administration; cited from earlier work
[10] = SC, 10 mg/kg, 5 days, QD, positive control

Row | SMILES | IC50 [1] [nM] | Papp A→B [2] [×10⁻⁶ cm/s] | microsomal CLint [3] [µL/min/mg] | microsomal CLint [4] [µL/min/mg] | IC50 [5] [nM] | further results
1 | COC(=O)Nc1nc2cc(C(=O)c3ccc(F)cc3)ccc2[nH]1 [compound 3, flubendazole, reference compound] | 670 |  | < 4 |  | 4 | Number of Worms Recovered, Avg Female Worms [7, 10]: 0.0; Number of Worms Recovered, Avg Male Worms [7, 10]: 0.0; worms recovered from positive control group ([7]; given SC): no worms recovered; Papp A→B ([2]; A-B, read-out: MDCK-MDR1 Papp (A-B)): 15.6 ×10⁻⁶ cm/s
2 | COC(=O)Nc1nc2ccc(C(=O)c3ccc4c(c3)B(O)OC4(C)C)cc2[nH]1 [compound 23] | > 100000 | 20.7 |  |  | > 1000 | inhibition at 1 µM [5]: 0%
3 | COC(=O)Nc1nc2cc(C(=O)c3ccc4c(c3)B(O)OC4)ccc2[nH]1 [compound 15] | 12300 | 6 | 8.25 |  | 118 | AUC(0-t) ([6]; 2 mg/kg, dose 2, IV): 880 ng·h/mL; Cmax ([6]; 2 mg/kg, dose 2, IV): 2260 ng/mL; AUC(0-t) ([6]; 10 mg/kg, dose 10, PO): 790 ng·h/mL; Cmax ([6]; 10 mg/kg, dose 10, PO): 270 ng/mL; bioavailability ([6]; 10 mg/kg, dose 10, PO): 18%
4 | COC(=O)Nc1nc2cc(C(=O)c3ccc4c(c3)C(C)(C)OB4O)ccc2[nH]1 [compound 22] | 280 | 26.2 |  |  | 10 | 
5 | COC(=O)Nc1nc2cc(C(=O)c3cccc4c3COB4O)ccc2[nH]1 [compound 19] | > 100000 | 28.3 |  | 5.56 | 1590 | 
6 | COC(=O)Nc1nc2cc(C(=O)c3ccc4c(c3)B(O)O[C@H]4C)ccc2[nH]1 (single isomer, unassigned) [compound 25] | > 100000 | 15.5 | < 4 | < 4 | 40 | 
7 | COC(=O)Nc1nc2cc(C(=O)NCc3ccc4c(c3)B(O)OC4(C)C)ccc2[nH]1 [compound 4] |  |  |  |  |  | efflux via P-glycoprotein transporter (Pgp) [8]: subject to efflux; activity in in vivo models of LF [9]: only active in in vivo models of LF following subcutaneous administration
8 | COC(=O)Nc1nc2cc(C(=O)c3ccc4c(c3)COB4O)ccc2[nH]1 [compound 20] | 9800 | 11.7 | 11.7 |  | 112 | AUC(0-t) ([6]; 2 mg/kg, dose 2, IV): 1160 ng·h/mL; Cmax ([6]; 2 mg/kg, dose 2, IV): 2000 ng/mL; AUC(0-t) ([6]; 10 mg/kg, dose 10, PO): 990 ng·h/mL; Cmax ([6]; 10 mg/kg, dose 10, PO): 480 ng/mL; bioavailability ([6]; 10 mg/kg, dose 10, PO): 17%
9 | COC(=O)Nc1nc2cc(C(=O)c3ccc4c(c3)B(O)O[C@@H]4C)ccc2[nH]1 (single isomer, unassigned) [compound 24] | > 100000 |  |  |  | > 1000 | inhibition at 1 µM [5]: 2%

Further lines, with some results ahead:

Row | IC50 [1] [nM] | Papp A→B [2] [×10⁻⁶ cm/s] | microsomal CLint [3] [µL/min/mg] | microsomal CLint [4] [µL/min/mg] | IC50 [5] [nM] | SMILES | further results
10 | 460 | 16 | 26.7 | 7.63 | 290 | COC(=O)Nc1nc2cc(C(=O)CCc3ccc4c(c3)B(O)OC4(C)C)ccc2[nH]1 [compound 32] | 
11 | 12200 | 34.3 | < 4 | < 4 | 110 | COC(=O)Nc1nc2cc(C(=O)c3cccc4c3B(O)O[C@H]4C)ccc2[nH]1 (single isomer, unassigned) [compound 30] | AUC(0-t) ([6]; 2 mg/kg, dose 2, IV): 14600 ng·h/mL; Cmax ([6]; 2 mg/kg, dose 2, IV): 7580 ng/mL; AUC(0-t) ([6]; 10 mg/kg, dose 10, PO): 141000 ng·h/mL; Cmax ([6]; 10 mg/kg, dose 10, PO): 14000 ng/mL; bioavailability ([6]; 10 mg/kg, dose 10, PO): ~100%
12 | > 100000 |  |  |  | 1310 | COC(=O)Nc1nc2ccc(C(=O)c3c(F)ccc4c3B(O)OC4)cc2[nH]1 [compound 28] | 
13 | 22000 | 32 | < 4 | < 4 | 270 | COC(=O)Nc1nc2ccc(C(=O)c3cc(F)cc4c3B(O)OC4)cc2[nH]1 [compound 27] | 
14 | 20 |  |  |  |  | COC(=O)Nc1nc2cc(C(=O)CCCc3ccc4c(c3)B(O)OC4(C)C)ccc2[nH]1 [compound 33] | 
15 | 30300 | 21.7 | 11.6 | 11.1 | 20 | COC(=O)Nc1nc2ccc(C(=O)c3ccc(F)c4c3B(O)OC4)cc2[nH]1 [compound 26] | AUC(0-t) ([6]; 2 mg/kg, dose 2, IV): 18600 ng·h/mL; Cmax ([6]; 2 mg/kg, dose 2, IV): 10900 ng/mL; AUC(0-t) ([6]; 10 mg/kg, dose 10, PO): 23500 ng·h/mL; Cmax ([6]; 10 mg/kg, dose 10, PO): 1690 ng/mL; bioavailability ([6]; 10 mg/kg, dose 10, PO): 24%
16 | 5600 | 57.2 | < 4 | < 4 | 100 | COC(=O)Nc1nc2cc(C(=O)c3cccc4c3B(O)O[C@@H]4C)ccc2[nH]1 (single isomer, unassigned) [compound 29] | 
17 | 11600 | 28 | < 4 | < 4 | 30 | COC(=O)Nc1nc2ccc(C(=O)c3ccc(Cl)c4c3B(O)OC4)cc2[nH]1 [compound 31] | 
